# Measured values taken from patent US9277748B2, “Agonist/antagonist compositions and methods of use” (The United States of America, as represented by the …, priority 2010, dated 2016).
# Entries after “also recorded” stand apart in the source; their conditions may differ. Read-outs that look alike come from different tables or passages of the source.
# Assays:
# [1] = target: CHO cells expressing TRPV1 (CHO-rTRPV1) (Rattus norvegicus, UniProt O35433); test: Intracellular Ca2+ imaging, agonist and antagonist added simultaneously; format: cell-based
# Experimental: The stable CHO cell clone expressing rTRPV1 (Tet-Off) was the generous gift of James E. Krause and Daniel N. Cortwright (Neurogen Corp., Branford, Conn., USA). These cells were cultured in maintaining medium (HAM F-12 supplemented with 10% FBS (USA sourced, Atlanta biologicals, Lawrenceville, Ga., USA), 25 mM HEPES, pH 7.5, 250 μg/ml geneticin (F-12, HEPES, and geneticin are from Invitrogen, Carlsbad, Calif., USA) and 1 mg/L tetracycline (Calbiochem, La Jolla, Calif., USA).
# CHO-rTRPV1 cells were seeded on 25 mm round glass coverslips in 35×10 mm tissue culture dishes in maintaining medium. After 24 hours, the medium was replaced with inducing medium (maintaining medium without geneticin and tetracycline, but containing 1 mM sodium butyrate) to induce TRPV1 expression. Experiments were performed approximately 24 hours after induction. For fura-2 AM (Invitrogen, Carlsbad, Calif., USA) loading, the cells were incubated in DPBS containing calcium and magnesium (Invitrogen, Carlsbad, Calif., USA), 0.5 mg/ml BSA (Sigma, St. Louis, Mo., USA), and 5 μM Fura-2 AM for 2 hours in the dark at 20° C. After 2 hours, the loaded cells were washed 2× with DPBS without calcium and magnesium and immersed in maintaining medium until the measurements. The measurements were carried out in DPBS containing calcium and magnesium, plus 0.5 mg/ml BSA. The fluorescence of individual cells treated simultaneously with a single dose of agonist and antagonist was measured with an InCyt Im2 fluorescence imaging system (Intracellular Imaging, Cincinnati, Ohio, USA). The cells within the selected field were illuminated alternately at 340 and 380 nm. Emitted light >510 nm was measured. To determine the approximate intracellular Ca^2+ concentrations, the system was calibrated using a fura-2 calibration kit (Invitrogen, Carlsbad, Calif., USA). Data were analyzed with the Incyt software and tabulated with Microsoft Excel spreadsheet and graphed with Origin 6.0 (OriginLab Corp., Northhampton, Mass., USA) software.
# The TRPV1 agonist and antagonist were added simultaneously to fura-2 AM loaded CHO-rTRPV1 cells after 90 seconds from the beginning of the measurement (baseline) and monitored continuously for an additional 10 minutes. Inhibition values were compared to the maximally effective dose of capsaicin (300 nM) in the same experiment (see FIGS. 2A-2E) or to the indicated concentration of capsaicin (see FIGS. 3A-3E). Experiments were performed three times, each on different days with approximately 30-49 cells measured.
# subjects = conditions: cited from earlier work
# Chain of CHO cells expressing TRPV1 (CHO-rTRPV1) (O35433 whole entry): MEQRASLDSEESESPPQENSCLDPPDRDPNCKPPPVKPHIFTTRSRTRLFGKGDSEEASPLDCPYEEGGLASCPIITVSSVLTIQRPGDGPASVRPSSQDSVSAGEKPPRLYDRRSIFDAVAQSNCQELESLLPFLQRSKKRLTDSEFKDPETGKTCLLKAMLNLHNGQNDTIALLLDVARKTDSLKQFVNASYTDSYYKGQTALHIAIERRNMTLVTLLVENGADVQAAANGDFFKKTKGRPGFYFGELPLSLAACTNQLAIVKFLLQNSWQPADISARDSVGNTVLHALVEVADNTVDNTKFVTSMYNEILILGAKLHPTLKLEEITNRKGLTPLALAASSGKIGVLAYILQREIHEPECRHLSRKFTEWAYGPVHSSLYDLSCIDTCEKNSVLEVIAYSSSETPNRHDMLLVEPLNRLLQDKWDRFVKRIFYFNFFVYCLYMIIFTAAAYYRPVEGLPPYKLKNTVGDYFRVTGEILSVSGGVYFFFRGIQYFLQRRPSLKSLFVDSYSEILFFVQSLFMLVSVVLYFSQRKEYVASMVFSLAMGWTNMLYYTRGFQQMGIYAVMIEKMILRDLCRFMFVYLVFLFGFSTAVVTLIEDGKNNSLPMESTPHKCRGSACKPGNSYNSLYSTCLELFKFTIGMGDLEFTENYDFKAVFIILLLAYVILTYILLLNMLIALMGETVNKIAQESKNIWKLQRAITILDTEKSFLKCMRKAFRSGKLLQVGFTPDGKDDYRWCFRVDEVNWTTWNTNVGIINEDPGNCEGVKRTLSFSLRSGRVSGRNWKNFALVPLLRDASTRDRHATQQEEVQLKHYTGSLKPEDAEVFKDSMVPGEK
smiles,measurement,setting,value
CC(C)(C)c1ccc(/C=C/C(=O)Nc2ccc3c(c2)OCCO3)cc1 [AMG9810],initial response to capsaicin as ratio of antagonist to agonist is raised,[1],decrease in the initial response to capsaicin
CC(C)(C)c1ccc(NC(=O)N2CCN(c3ncccc3Cl)CC2)cc1 [BCTC],suitability of antagonist combined with capsaicin to give the desired properties,[1],appropriate ratios of antagonist to agonist exist; also recorded: give the desired properties
C=C(C)[C@]12C[C@@H](C)[C@@]34O[C@](Cc5ccccc5)(O[C@@H]1[C@@H]3C=C(COC(=O)Cc1cc(I)c(O)c(OC)c1)C[C@]1(O)C(=O)C(C)=C[C@@H]41)O2 [Iodo-RTX],suitability of antagonist combined with capsaicin to give the desired properties,"[1]; criterion: maximal response to agonist decreased by not more than 20%, response reduced by at least 80% later, FIGS. 2 and 3",give the desired properties
same,suitability of antagonist combined with capsaicin to give the desired properties,"[1]; criterion: maximal response to agonist decreased by not more than 20%, response reduced by at least 80% later, FIGS. 2 and 3, listed as IodoRTX",appropriate ratios of antagonist to agonist exist
"COc1cc(CNC(=O)CCCC/C=C/C(C)C)ccc1O [capsaicin, trans-8-methyl-N-vanillyl-6-nonenamide]",intracellular calcium response to agonist,"[1]; CHO cells expressing TRPV1, FIGS. 2A-2E",persistent elevation of intracellular calcium
same,maximally effective dose,[1]; fura-2 AM loaded CHO-rTRPV1 cells,300 nM
same,proper inflammation,"subjects; at 0.90% concentration, small population of individuals",does not achieve proper inflammation
same,proper inflammation,subjects; at 1.45% concentration,all subjects achieve proper inflammation
same,most potent level that can be delivered without potential hazards,subjects; concentration in spray,1.45%
Oc1cc2c(cc1O)CN(C(=S)NCCc1ccc(Cl)cc1)CCC2 [capsazepine],initial response to capsaicin as ratio of antagonist to agonist is raised,[1]; FIG. 2D and FIG. 2E,decrease in the initial response to capsaicin
